Test results as given in patent US20250326742A1, “THERAPEUTIC COMPOUNDS” (RUTGERS, THE STATE UNIVERSITY OF NEW JERSEY, priority 2024, published 2025).

Assays:
SARS-CoV-2 PLpro = SARS-CoV-2 PLpro (Severe acute respiratory syndrome coronavirus 2, UniProt P0DTD1); test: biochemical; conditions: 200 nM PLpro, 10 μM FRET substrate, 30 min preincubation at 30° C.
Method: FRET-Based PL^pro Enzymatic Assay
The SARS-CoV-2 PL^pro enzymatic assays were carried out as follows: The assay was assembled in 96-well plates with 100 μl of 200 nM PL^Pro protein in PL^Pro reaction buffer [50 mM Hepes (pH 7.5), 0.01% Triton X-100, and 5 mM DTT]. Then, 1 μl of testing compound at various concentrations was added to each well and incubated at 30° C. for 30 minutes. The enzymatic reaction was initiated by adding 1 μl of 1 mM FRET substrate (the final substrate concentration is 10 μM). The reaction was monitored in a Cytation 5 image reader with filters for excitation at 360/40 nm and emission at 460/40 nm at 30° C. for 1 hour. The initial velocity of the enzymatic reaction with and without testing compounds was calculated by linear regression for the first 15 minutes of the kinetic progress curve. The ICso values were calculated by plotting the initial velocity against various concentrations of testing compounds with a dose-response function in Prism 8 software.

[1] = Cytotoxicity assay in Vero E6 cells (neutral red uptake); format: cell-based; conditions: African green monkey, 2 days at 37° C.
Method: Cytotoxicity Assay in Vero E6 Cells
Briefly, 80,000 cells/ml of the tested cell lines were dispensed into 96-well cell culture plates at 100 μl per well. Twenty-four hours later, the growth medium was removed and washed with 150 μl of PBS buffer. Two hundred microliters of fresh serum-free medium containing serial diluted compounds was added to each well. After incubating for 2 days at 37° C., the medium was removed and replaced with 100 μl of DMEM medium containing neutral red (40 μg/ml) and incubated for 2 to 4 hours at 37° C. The amount of neutral red taken up was determined by measuring the absorbance at 540 nm using a Multiskan FC Microplate Photometer (Thermo Fisher Scientific). The CC50 values were calculated from best-fit dose-response curves with variable slope in Prism 8.

Row | Compound | IC50 (SARS-CoV-2 PLpro) | CC50 at 2 days [1]
1 | C#CCNC(=O)CCc1ccccc1C(=O)N[C@H](C)c1cc(-c2cnn(C)c2)cc(-c2ccn(CC)n2)c1 [Example 2, (R)-N-(1-(3-(1-Ethyl-1H-pyrazol-3-yl)-5-(1-methyl-1H-pyrazol-4-yl)phenyl)ethyl)-2-(3-oxo-3-(prop-2-yn-1-ylamino)propyl)benzamide] | 1 to 5 µM | 256 µM
2 | CCn1ccc(-c2cc(-c3cnn(C)c3)cc([C@@H](C)NC(=O)c3ccccc3CCC(=O)NNC(=O)C(Cl)Cl)c2)n1 [Example 3, (R)-2-(3-(2-(2,2-Dichloroacetyl)hydrazineyl)-3-oxopropyl)-N-(1-(3-(1-ethyl-1H-pyrazol-3-yl)-5-(1-methyl-1H-pyrazol-4-yl)phenyl)ethyl)benzamide] | 1 to 5 µM | > 500 µM
3 | C=CC(=O)NNC(=O)CCc1ccccc1C(=O)N[C@H](C)c1cc(-c2cnn(C)c2)cc(-c2ccn(CC)n2)c1 [Example 4, (R)-2-(3-(2-Acryloylhydrazineyl)-3-oxopropyl)-N-(1-(3-(1-ethyl-1H-pyrazol-3-yl)-5-(1-methyl-1H-pyrazol-4-yl)phenyl)ethyl)benzamide] | 1 to 5 µM | > 500 µM
4 | CCn1ccc(-c2cc(-c3cnn(C)c3)cc([C@@H](C)NC(=O)c3ccccc3CCC(=O)NNC(=O)/C=C/CN(C)C)c2)n1 [Example 5, (R,E)-2-(3-(2-(4-(Dimethylamino)but-2-enoyl)hydrazineyl)-3-oxopropyl)-N-(1-(3-(1-ethyl-1H-pyrazol-3-yl)-5-(1-methyl-1H-pyrazol-4-yl)phenyl)ethyl)benzamide] | > 5 µM | > 500 µM
5 | C=CS(=O)(=O)NNC(=O)CCc1ccccc1C(=O)N[C@H](C)c1cc(-c2cnn(C)c2)cc(-c2ccn(CC)n2)c1 [Example 6, (R)-N-(1-(3-(1-Ethyl-1H-pyrazol-3-yl)-5-(1-methyl-1H-pyrazol-4-yl)phenyl)ethyl)-2-(3-oxo-3-(2-(vinylsulfonyl)hydrazineyl)propyl)benzamide] | < 1 µM | 31 µM
6 | CCn1ccc(-c2cc(-c3cnn(C)c3)cc([C@@H](C)NC(=O)c3ccccc3CCC(=O)NNC(=O)/C=C/C(=O)OC(C)(C)C)c2)n1 [Example 7, tert-Butyl (R,E)-4-(2-(3-(2-((1-(3-(1-ethyl-1H-pyrazol-3-yl)-5-(1-methyl-1H-pyrazol-4-yl)phenyl)ethyl)carbamoyl)phenyl)propanoyl)hydrazineyl)-4-oxobut-2-enoate] | < 1 µM | 
7 | CCn1ccc(-c2cc(-c3cnn(C)c3)cc([C@@H](C)NC(=O)c3ccccc3CCC(=O)NNC(=O)/C=C/C(=O)N3CC(C)(C)C3)c2)n1 [Example 8, (R,E)-2-(3-(2-(4-(3,3-Dimethylazetidin-1-yl)-4-oxobut-2-enoyl)hydrazineyl)-3-oxopropyl)-N-(1-(3-(1-ethyl-1H-pyrazol-3-yl)-5-(1-methyl-1H-pyrazol-4-yl)phenyl)ethyl)benzamide] |  | > 250 µM
8 | CCOC(=O)/C=C/C(=O)NNC(=O)CCc1ccccc1C(=O)N[C@H](C)c1cc(-c2cnn(C)c2)cc(-c2ccn(CC)n2)c1 [Example 9, Ethyl (R,E)-4-(2-(3-(2-((1-(3-(1-ethyl-1H-pyrazol-3-yl)-5-(1-methyl-1H-pyrazol-4-yl)phenyl)ethyl)carbamoyl)phenyl)propanoyl)hydrazineyl)-4-oxobut-2-enoate] | < 1 µM | 
9 | CCn1ccc(-c2cc(-c3cnn(C)c3)cc([C@@H](C)NC(=O)c3ccccc3CCC(=O)NNS(=O)(=O)CCl)c2)n1 [Example 10, (R)-2-(3-(2-((Chloromethyl)sulfonyl)hydrazineyl)-3-oxopropyl)-N-(1-(3-(1-ethyl-1H-pyrazol-3-yl)-5-(1-methyl-1H-pyrazol-4-yl)phenyl)ethyl)benzamide] | > 5 µM | > 250 µM
10 | CCn1ccc(-c2cc(-c3cnn(C)c3)cc([C@@H](C)NC(=O)c3ccccc3CCC(=O)NNS(=O)(=O)C(Cl)Cl)c2)n1 [Example 11, (R)-2-(3-(2-((dichloromethyl)sulfonyl)hydrazineyl)-3-oxopropyl)-N-(1-(3-(1-Ethyl-1H-pyrazol-3-yl)-5-(1-methyl-1H-pyrazol-4-yl)phenyl)ethyl)benzamide] | > 5 µM | > 250 µM
11 | CCn1ccc(-c2cc(-c3cnn(C)c3)cc([C@@H](C)NC(=O)c3ccccc3CCC(=O)NNC(=O)/C=C/C(=O)N(C)C)c2)n1 [Example 12, (R,E)-2-(3-(2-(4-(Dimethylamino)-4-oxobut-2-enoyl)hydrazineyl)-3-oxopropyl)-N-(1-(3-(1-ethyl-1H-pyrazol-3-yl)-5-(1-methyl-1H-pyrazol-4-yl)phenyl)ethyl)benzamide] | < 1 µM | > 500 µM
12 | CCn1ccc(-c2cc(-c3cnn(C)c3)cc([C@@H](C)NC(=O)c3ccccc3CCC(=O)NNC(=O)/C=C/C(=O)NC3CC3)c2)n1 [Example 13, (R,E)-2-(3-(2-(4-(Cyclopropylamino)-4-oxobut-2-enoyl)hydrazineyl)-3-oxopropyl)-N-(1-(3-(1-ethyl-1H-pyrazol-3-yl)-5-(1-methyl-1H-pyrazol-4-yl)phenyl)ethyl)benzamide] | < 1 µM | > 250 µM
13 | CCn1ccc(-c2cc(-c3cnn(C)c3)cc([C@@H](C)NC(=O)c3ccccc3CCC(=O)NNC(=O)/C=C/C(=O)NC3CC(F)(F)C3)c2)n1 [Example 14, (R,E)-2-(3-(2-(4-((3,3-Difluorocyclobutyl)amino)-4-oxobut-2-enoyl)hydrazineyl)-3-oxopropyl)-N-(1-(3-(1-ethyl-1H-pyrazol-3-yl)-5-(1-methyl-1H-pyrazol-4-yl)phenyl)ethyl)benzamide] | < 1 µM | > 250 µM
14 | CCn1ccc(-c2cc(-c3cnn(C)c3)cc([C@@H](C)NC(=O)c3ccccc3CCC(=O)NNC(=O)CCl)c2)n1 [Example 15, (R)-2-(3-(2-(2-Chloroacetyl)hydrazineyl)-3-oxopropyl)-N-(1-(3-(1-ethyl-1H-pyrazol-3-yl)-5-(1-methyl-1H-pyrazol-4-yl)phenyl)ethyl)benzamide] | < 1 µM | > 250 µM
15 | C=C(F)C(=O)NNC(=O)CCc1ccccc1C(=O)N[C@H](C)c1cc(-c2cnn(C)c2)cc(-c2ccn(CC)n2)c1 [Example 16, (R)-N-(1-(3-(1-Ethyl-1H-pyrazol-3-yl)-5-(1-methyl-1H-pyrazol-4-yl)phenyl)ethyl)-2-(3-(2-(2-fluoroacryloyl)hydrazineyl)-3-oxopropyl)benzamide] | > 5 µM | > 250 µM
16 | C=C(Cl)C(=O)NNC(=O)CCc1ccccc1C(=O)N[C@H](C)c1cc(-c2cnn(C)c2)cc(-c2ccn(CC)n2)c1 [Example 17, (R)-2-(3-(2-(2-Chloroacryloyl)hydrazineyl)-3-oxopropyl)-N-(1-(3-(1-ethyl-1H-pyrazol-3-yl)-5-(1-methyl-1H-pyrazol-4-yl)phenyl)ethyl)] | 1 to 5 µM | 33 µM
17 | CCn1ccc(-c2cc(-c3cnn(C)c3)cc([C@@H](C)NC(=O)c3ccccc3CCC(=O)NNC(=O)/C=C/C(=O)N3CC(C(F)(F)F)C3)c2)n1 [Example 18, (R,E)-N-(1-(3-(1-Ethyl-1H-pyrazol-3-yl)-5-(1-methyl-1H-pyrazol-4-yl)phenyl)ethyl)-2-(3-oxo-3-(2-(4-oxo-4-(3-(trifluoromethyl)azetidin-1-yl)but-2-enoyl)hydrazineyl)propyl)benzamide] | < 1 µM | 
